In US20070032529A1, “Pyrazole compounds and their use as antidiabetes agents” (Japan Tobacco Inc., priority 2005, published 2007):

Tests used:
[1] = tested on: db/db mice; assay: Measuring blood plasma glucose concentration in db/db mice (hypoglycemic effect); format: in vivo; design: key: ++: compounds exhibiting statistically significant hypoglycemic effect at a dose of 10 mg/kg or less; +: compounds exhibiting not significant but obvious hypoglycemic effect at a dose of 10 mg/kg; details: db/db mice fasted 4 h, oral administration, plasma glucose 1 and 3 hours after administration, dose 10 mg/kg or less, Dunnett test vs solvent
In short: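 db/db mice aged 9-18 weeks, grouped 5 or 8 per group matched on plasma glucose, fasted 4 h, then dosed orally with compound or 0.5% methylcellulose vehicle. Plasma glucose measured 1 and 3 h post-dose; each timepoint compared against vehicle by Dunnett test.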

[2] = molecular target: T1, recombinant human liver glycogen phosphorylase (Homo sapiens, UniProt P06737); assay: Measuring liver glycogen phosphorylase activity (forward reaction system, NADPH absorbance at 340 nm); format: biochemical; details: enzyme inhibitory activity with respect to liver glycogen phosphorylase; class symbols
T1 construct: made in house; host or cells: Sf9 insect cells (crude homogenate, diluted, used as the enzyme solution)
T1 sequence (P06737 1-847): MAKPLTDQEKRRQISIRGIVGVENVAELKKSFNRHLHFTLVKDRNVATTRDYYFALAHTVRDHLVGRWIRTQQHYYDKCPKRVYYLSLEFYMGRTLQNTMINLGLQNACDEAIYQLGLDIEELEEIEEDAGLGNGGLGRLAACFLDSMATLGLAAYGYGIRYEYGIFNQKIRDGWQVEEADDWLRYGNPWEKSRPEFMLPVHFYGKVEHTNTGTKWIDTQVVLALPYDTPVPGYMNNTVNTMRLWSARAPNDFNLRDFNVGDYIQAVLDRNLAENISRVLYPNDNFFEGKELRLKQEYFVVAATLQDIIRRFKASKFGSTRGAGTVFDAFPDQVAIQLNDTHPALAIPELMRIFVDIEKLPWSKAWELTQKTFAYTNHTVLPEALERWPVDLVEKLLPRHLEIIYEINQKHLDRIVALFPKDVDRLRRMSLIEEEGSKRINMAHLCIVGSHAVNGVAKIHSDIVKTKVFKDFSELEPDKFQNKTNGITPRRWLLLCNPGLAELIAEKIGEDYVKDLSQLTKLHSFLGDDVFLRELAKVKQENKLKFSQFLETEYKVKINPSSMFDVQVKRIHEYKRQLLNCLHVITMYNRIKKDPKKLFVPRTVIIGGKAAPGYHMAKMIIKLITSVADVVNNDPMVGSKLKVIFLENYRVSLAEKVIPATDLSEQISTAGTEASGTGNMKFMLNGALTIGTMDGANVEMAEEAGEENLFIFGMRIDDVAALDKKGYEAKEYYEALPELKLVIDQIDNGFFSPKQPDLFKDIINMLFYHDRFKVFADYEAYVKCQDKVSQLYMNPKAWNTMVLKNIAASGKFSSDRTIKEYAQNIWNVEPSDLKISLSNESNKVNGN
In short: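 Compounds in 1% DMSO; activity taken as blank-subtracted 340 nm absorbance change across 75 min at room temperature. Forward reaction: glucose-1-phosphate released from glycogen converted by coupling enzymes, yielding NADPH; enzyme from recombinant Sf9 homogenate, reaction containing glucose, pH 6.8. IC50 from two-point linear interpolation.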

Row | IC50 [2] [nM] | SMILES | vivo (hypoglycemic effect in db/db mice) [1]
1 | < 100 | Cl.O=C(NCc1ccccn1)c1cc(NC(=O)c2cc(F)c(F)cc2Cl)[nH]n1 [Example 3-20] | +
2 | < 100 | Cl.O=C(NCc1ccncc1)c1cc(NC(=O)c2cc(F)c(F)cc2Cl)[nH]n1 [Example 3-21] | ++
3 | < 100 | CN(C)c1ccc(CNC(=O)c2cc(NC(=O)c3cc(F)c(F)cc3Cl)[nH]n2)cc1 [Example 3-24] | +
4 | < 100 | O=C(NCc1ccco1)c1cc(NC(=O)c2cc(F)c(F)cc2Cl)[nH]n1 [Example 3-25] | +
5 | < 100 | O=C(NCc1cccs1)c1cc(NC(=O)c2cc(F)c(F)cc2Cl)[nH]n1 [Example 3-26] | +
6 | < 100 | Nc1ccc(CNC(=O)c2cc(NC(=O)c3cc(F)c(F)cc3Cl)[nH]n2)cc1 [Example 3-31] | +
7 | < 100 | Cc1ccccc1CNC(=O)c1cc(NC(=O)c2cc(F)c(F)cc2Cl)[nH]n1 [Example 3-32] | +
8 | < 100 | Cc1cccc(CNC(=O)c2cc(NC(=O)c3cc(F)c(F)cc3Cl)[nH]n2)c1 [Example 3-33] | +
9 | < 100 | COc1ncccc1CNC(=O)c1cc(NC(=O)c2cc(F)c(F)cc2Cl)[nH]n1 [Example 3-35] | ++
10 | < 100 | COC(=O)c1cccc(CNC(=O)c2cc(NC(=O)c3cc(F)c(F)cc3Cl)[nH]n2)c1 [Example 3-38] | +
11 | < 100 | O=C(O)c1cccc(CNC(=O)c2cc(NC(=O)c3cc(F)c(F)cc3Cl)[nH]n2)c1 [Example 3-39] | +
12 | < 100 | O=C(NCc1ccc(C(F)(F)F)nc1)c1cc(NC(=O)c2cc(F)c(F)cc2Cl)[nH]n1 [Example 3-40] | ++
13 | < 100 | CCOc1ncccc1CNC(=O)c1cc(NC(=O)c2cc(F)c(F)cc2Cl)[nH]n1 [Example 3-41] | ++
14 | < 100 | COc1ccnc(CNC(=O)c2cc(NC(=O)c3cc(F)c(F)cc3Cl)[nH]n2)c1 [Example 3-45] | +
15 | < 100 | COc1ccc(CNC(=O)c2cc(NC(=O)c3cc(F)c(F)cc3Cl)[nH]n2)c(OC)n1 [Example 3-46] | +
16 | < 100 | CN(C(=O)c1cc(NC(=O)c2cc(F)c(F)cc2Cl)[nH]n1)c1ccc(C(=O)O)cc1 [Example 4-2, 5-(2-chloro-4,5-difluoro-benzoylamino)-1H-pyrazole-3-carboxylic acid (4-carboxyphenyl)-methyl-amide] | ++
17 | < 100 | CCOC(=O)CN(C(=O)c1cc(NC(=O)c2cc(F)c(F)cc2Cl)[nH]n1)c1ccccc1 [Example 4-4] | +
18 | < 100 | O=C(Nc1cc(C(=O)N(Cc2ccccc2)c2ccccc2)n[nH]1)c1cc(F)c(F)cc1Cl [Example 4-9] | +
19 | < 100 | CCOCCN(C(=O)c1cc(NC(=O)c2cc(F)c(F)cc2Cl)[nH]n1)c1ccccc1 [Example 4-18] | +
20 | < 100 | CCNC(=O)CN(C(=O)c1cc(NC(=O)c2cc(F)c(F)cc2Cl)[nH]n1)c1ccccc1 [Example 4-23] | +
21 | < 100 | COCCN(C(=O)c1cc(NC(=O)c2cc(F)c(F)cc2Cl)[nH]n1)c1ccccc1 [Example 4-34] | +
22 | < 100 | CCCCN(C(=O)c1cc(NC(=O)c2cc(F)c(F)cc2Cl)[nH]n1)c1ccc(C(=O)O)cc1 [Example 4-41] | +
23 | < 100 | CCCCN(C(=O)c1cc(NC(=O)c2cc(F)c(F)cc2Cl)[nH]n1)c1ccc(CC(=O)O)cc1 [Example 4-46] | +
